# Measured values as given in patent publication US9738902B2, “Modified PYR/PYL receptors activated by ligands” (priority 2013, dated 2017).
# Experiments:
# [1] = molecular target: T1, GST-ABI2 in the presence of PYR1^K59R,F108A,S122G (Arabidopsis thaliana, UniProt O49686, F108A/K59R/S122G); assay: PP2C activity assay (pNPP); assay type: biochemical; conditions: PYR1^K59R,F108A,S122G 1200 nM, PP2C 600 nM
# T1 construct: 6x-His; made in house; host or cells: E. coli BL21[DE3]pLysS (receptor)
# From the text: (§1) One possibility in any functional screen conducted in a heterologous organism such as S. cerevisiae is that mutants identified may only work in the context of the heterologous expression system. We therefore examined whether recombinant PYR1^K59R,F108A,S122G and PYR1^MANDI proteins inhibit PP2C activity in vitro, as is well documented for wild type PYR1 in response to ABA (Park et al., 2009). Both receptors were cloned into pET28 to generate 6×-His (SEQ ID NO:109) tagged receptors. These were expressed in BL21[DE3]pLysS E. coli host cells at 18° C. overnight. 6×-His-fusion proteins were purified from sonicated lysates using Ni-NTA agarose (Qiagen, USA), according to the manufacturer's instructions. For PP2C assays, recombinant GST-HAB1 and GST-ABI2 were expressed and purified as described previously (Park et al., 2009) and PP2C activity assayed conducted using the colorimetric phosphatase substrate para-nitrophenyl phosphate (pNPP) as previously described (Park et al., 2009). PP2C assays were conducted using 600 nM of PP2C and 1200 nM recombinant receptors. […] We note that these mutant receptors cannot respond to ABA due to the K59R mutation they contain, which abolishes ABA responsiveness.
# [2] = molecular target: T2, GST-HAB1 in the presence of PYR1^K59R,F108A,S122G (Arabidopsis thaliana, UniProt O49686, F108A/K59R/S122G); assay: PP2C activity assay (pNPP); assay type: biochemical; conditions: PYR1^K59R,F108A,S122G 1200 nM, PP2C 600 nM
# T2 construct: 6x-His; made in house; host or cells: E. coli BL21[DE3]pLysS (receptor)
# T2 sequence (O49686 whole entry K59R/F108A/S122G): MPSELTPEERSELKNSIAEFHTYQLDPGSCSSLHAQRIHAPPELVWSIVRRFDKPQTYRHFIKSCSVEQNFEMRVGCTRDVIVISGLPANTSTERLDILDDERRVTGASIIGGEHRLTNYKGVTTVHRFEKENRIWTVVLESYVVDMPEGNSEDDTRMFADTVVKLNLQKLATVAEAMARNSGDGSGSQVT
# T2 sequence (Q9CAJ0 23-511 partner): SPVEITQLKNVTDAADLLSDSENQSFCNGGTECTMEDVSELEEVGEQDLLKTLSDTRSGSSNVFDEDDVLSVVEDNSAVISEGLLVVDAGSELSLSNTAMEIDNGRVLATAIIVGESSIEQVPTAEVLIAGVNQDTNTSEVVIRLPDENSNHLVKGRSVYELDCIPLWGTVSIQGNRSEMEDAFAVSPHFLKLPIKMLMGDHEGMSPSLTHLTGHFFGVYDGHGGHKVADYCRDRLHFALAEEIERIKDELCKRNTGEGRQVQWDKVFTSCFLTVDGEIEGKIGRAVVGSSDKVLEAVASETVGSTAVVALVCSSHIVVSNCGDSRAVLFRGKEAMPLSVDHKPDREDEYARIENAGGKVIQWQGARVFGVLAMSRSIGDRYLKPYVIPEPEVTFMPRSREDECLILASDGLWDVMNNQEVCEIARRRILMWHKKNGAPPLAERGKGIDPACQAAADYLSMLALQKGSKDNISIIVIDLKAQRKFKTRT
# From the text: as §1
# [3] = system: PYR1^MANDI transgenic plants (E15, E16, F29, F34); assay: progressive water loss regime (drought); assay type: in vivo, Arabidopsis; conditions: 2 μM mandipropamid, repeated 4 days later; day 11
# Experimental: Treatment of plants with ABA delays water loss and additionally improves the ability of plants to recover from drought. We therefore examined the behavior of wild type, 35S::GFP-PYR and 4 homozygous PYR1^MANDI expressing transgenic plants (E15, E16, F29 and F34) during a progressive water loss regime. […] Plants were grown for three weeks in pots containing the same mass of soil and receiving the same amount of water at each watering. At three weeks after germination, regular watering of the plants was ceased and plants were treated with mock or 2 μM mandipropamid. These treatments were repeated 4 days later. Plants were photographed at 1, 10 and 11 days after initiation of water deprivation. As is evident from FIG. 6, by day 10 mock treated plants display evidence of water stress as indicated by collapsed leaves, by day 11 all mock treated plants have experienced severe desiccation. […] This is also observed for wild type and 35S::GFP-PYR plants treated with mandipropamid at day 10. […] This is in contrast to wild type and 35S::GFP-PYR1 control plants treated with mandipropamid and all mock treated lines. Thus, mandipropamid is able to improve drought stress tolerance in PYR1^MANDI expressing transgenic plants. The beneficial effects of mandipropamid are restricted to PYR1^MANDI expressing transgenic plants.
# [4] = system: MDP1 and MDP2 transgenic lines (35S::PYR1^MANDI); assay: thermal imaging of leaf temperature; assay type: in vivo, Arabidopsis; conditions: 1 μM mandipropamid, 24 hours after first application
# [5] = system: MDP1 and MDP2 transgenic genotypes; assay: root growth inhibition assay; assay type: in vivo, Arabidopsis; conditions: MDP1 and MDP2, 72 hours after transfer
# From the text: (§2) Given the relatively high mandipropamid sensitivity of the MDP1 and MDP2 transgenic lines, these lines were subjected to further physiological characterization. One of ABA's physiological effects is to inhibit root growth. Mandipropamid should therefore inhibit root growth in the MDP1 and MDP2 transgenic lines, but not wild type, if it is successfully activating this ABA response. To test this, seeds of the wild type, PYR1-OX, MDP1 and MDP2 genotypes were surface sterilized in bleach and plated on to 0.7% agar petri plates containing ½ MS salts and 0.5% sucrose. After 4 days of stratification at 4° C., the plates were transferred to a growth chamber operating on a 16-hour day length cycle and allowed to germinate for 24 hours and then transferred to petri plates (0.7% agar containing ½ MS salts and 0.5% sucrose) supplemented with differing concentrations of mandipropamid. These plates were then grown vertically in a growth chamber operating on a 16-hour day length cycle. The amount of root growth after transfer was measured 72-hours later after transfer.
# wild type = assay: root growth inhibition assay; assay type: in vivo, Arabidopsis; conditions: 72 hours after transfer
# From the text: as §2
# [6] = system: transgenic 35S::PYR1^MANDI tomato plants; assay: thermal imaging of leaf temperature; assay type: in vivo; conditions: 10 μM mandipropamid, 24 hours post treatment
# From the text: The core ABA response pathway is highly conserved and it is therefore expected that PYR1^MANDI should be able to activate ABA responses in response to mandipropamid in most land plants. To investigate if the physiological activity of PYR1^MANDI is functional in other species besides Arabidopsis we made transgenic 35S::PYR1^MANDI tomato. The same construct utilized for construction of Arabidopsis transgenics (described in Example 5) was modified to contain a kanamycin selection marker. Tomato was transformed by Agrobacterium-mediated transformation, which was conducted as described by Sun et al. (2006) with a few modifications. Surface sterilized tomato seeds (strain UC82B) were germinated on sterilized wet filter paper in a petridish. Cotyledons from 7-day old seedlings were excised and dipped into a suspension of Agrobacterium in MS medium containing 100 μM acetosyringone and 10 μM 2-mercaptoethanol for 10 minutes. Explants were then placed on co-cultivation medium containing MS salts, 3% sucrose, 0.3% Gelite and 1.5 mg/L zeatin. After 3 days of co-culture in darkness, the explants were transferred onto callus induction medium containing MS salts, 3% sucrose, 0.3% Gelite, 1.5 mg/L zeatin and 100 mg/L kanamycin and 125 mg/L carbenicillin. Explants were transferred to freshly prepared medium every 2 weeks. […]
# T1 sequence (O49686 whole entry K59R/F108A/S122G): as the sequence (O49686 whole entry K59R/F108A/S122G) above
# T1 sequence (O04719 whole entry partner): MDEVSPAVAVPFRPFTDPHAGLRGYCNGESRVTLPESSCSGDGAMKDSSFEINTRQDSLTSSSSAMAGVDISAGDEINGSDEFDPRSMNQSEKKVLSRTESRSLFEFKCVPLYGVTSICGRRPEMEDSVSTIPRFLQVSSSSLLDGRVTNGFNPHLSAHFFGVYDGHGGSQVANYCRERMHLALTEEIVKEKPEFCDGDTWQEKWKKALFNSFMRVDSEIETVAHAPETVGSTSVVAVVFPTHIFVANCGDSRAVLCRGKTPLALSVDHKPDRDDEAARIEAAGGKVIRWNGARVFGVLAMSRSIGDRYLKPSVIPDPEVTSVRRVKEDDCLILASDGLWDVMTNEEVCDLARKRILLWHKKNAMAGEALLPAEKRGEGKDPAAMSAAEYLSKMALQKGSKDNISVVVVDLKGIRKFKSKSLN
smiles,measurement,setting,value
"C#CCOc1ccc(CCNC(=O)C(OCC#C)c2ccc(Cl)cc2)cc1OC (stereo not shown) [Mandipropamid, mandipropamid]",inhibition of ABI2 PP2C activity,[1],saturable inhibition
same,inhibition of HAB1 PP2C activity,[2],saturable inhibition
same,desiccation during water deprivation,[3],not desiccated
same,leaf temperature,[4],increased leaf temperature
same,root growth,[5],inhibited
same,root growth,wild type,negligible inhibition
same,leaf temperature,[6],increase in leaf temperature
